Measurements as given in EP0600950B1, “AMIDE TETRAZOLE ACAT INHIBITORS” (priority 1991, dated 1993).

target: acyl-CoA: cholesterol acyltransferase (ACAT); assay: in vitro ACAT inhibition, rabbit intestinal microsomes (IAI); format: biochemical; settings: radiolabeled cholesterol oleate formed from radiolabeled oleic acid
Source text: The test assesses the ability of a test compound to inhibit the acylation of cholesterol by oleic acid by measuring the amount of radiolabeled cholesterol oleate formed from radiolabeled oleic acid in a tissue preparation containing rabbit intestinal microsomes (designated IAI) or from rat liver microsomes (designated LAI).

| SMILES | IC50 [nM] |
| --- | --- |
| CCCCCCCCCCCCn1nnc(C(C(=O)Nc2c(OC)cc(OC)cc2OC)c2ccccc2)n1 (racemic) [Example 13, (±) 2-Dodecyl-α-phenyl-N-(2,4,6-trimethoxyphenyl)-2H-tetrazole-5-acetamide] | 9 |
| CCCCCCCCCCCCn1nnc(C(C(=O)Nc2c(OC)ncnc2OC)c2ccccc2)n1 (racemic) [Example 16, (±)-N-(4,6-dimethoxy-5-pyrimidinyl)-2-dodecyl-α-phenyl-2H-tetrazole-5-acetamide] | 8 |
| CCCCCCCCCCCCn1nnc(C(C(=O)Nc2c(C)nn(C)c2C)c2ccccc2)n1 (racemic) [Example 19, (±)-2-dodecyl-α-phenyl-N-(1,3,5-trimethyl-1H-pyrazol-4-yl)-2H-tetrazole-5-acetamide] | 14 |
| CCCCCCCCCCCCn1nnc(C(C(=O)Nc2ccc(F)cc2F)c2ccccc2)n1 (racemic) [Example 21, (±)-N-(2,4-difluoro-phenyl)-2-dodecyl-α-phenyl-2H-tetrazole-5-acetamide] | 15 |
| CCCCCCCCCCCCn1nnc(C(C(=O)Nc2ccccn2)c2ccccc2)n1 (racemic) [Example 22, (±)-2-dodecyl-α-phenyl-N-2-pyridinyl-2H-tetrazole-5-acetamide] | 91 |
| CCCCCCCCCCCCn1nnc(C(C(=O)Nc2ncccc2C)c2ccccc2)n1 (racemic) [Example 23, (±)-2-dodecyl-N-(3-methyl-2-pyridinyl)-α-phenyl-2H-tetrazole-5-acetamide] | 7.5 |
| CCCCCCCCCCCCn1nnnc1C(C(=O)Nc1ccc(F)cc1F)c1ccccc1 (racemic) [Example 25, (±)-N-(2,4-Difluorophenyl)-1-dodecyl-α-phenyl-1H-tetrazole-5-acetamide] | 800 |
| CCCCCCCCCCCCn1nnnc1C(C(=O)Nc1c(C(C)C)cccc1C(C)C)c1ccccc1 (racemic) [Example 26, (±)-N-[2,6-Bis(1-methylethyl)phenyl]-1-dodecyl-α-phenyl-1H-tetrazole-5-acetamide] | 79 |
| CCCCCCCCCCCCn1nnc(C(C(=O)NC(C)(C)C)c2ccccc2)n1 (racemic) [Example 30, (±) N-(1,1-dimethylethyl)-2-dodecyl-α-phenyl-2H-tetrazole-5-acetamide] | 770 |
| CCCCCCCCn1nnc(C(C(=O)Nc2c(OC)cc(OC)cc2OC)c2ccccc2)n1 (racemic) [Example 31, (±)-2-Octyl-α-phenyl-N-(2,4,6-trimethoxyphenyl)-2H-tetrazole-5-acetamide] | 270 |
| CCCCCCCCCCCCCCCCn1nnc(C(C(=O)Nc2c(OC)cc(OC)cc2OC)c2ccccc2)n1 (racemic) [Example 32, (±) 2-Hexadecyl-α-phenyl-N-(2,4,6-trimethoxyphenyl)-2H-tetrazole-5-acetamide] | 53 |
| CCCCCCCCCCCCn1nnc(C(C(=O)Nc2c(OC)cc(OC)cc2OC)c2ccc(N(C)C)cc2)n1 (racemic) [Example 51, (±)-α-[4-dimethylamino)phenyl]-2-dodecyl-N-(2,4,6-trimethoxy-phenyl)-2H-tetrazole-5-acetamide] | 660 |
| CCCCCCCCCCCCn1nnc(C(C(=O)Nc2c(OC)cc(OC)cc2OC)c2ccc(F)cc2)n1 (racemic) [Example 52, (±)-2-Dodecyl-α-(4-fluorophenyl)-N-(2,4,6-trimethoxyphenyl)-2H-tetrazole-5-acetamide] | 36 |
| CCCCCCCCCCCCn1nnc(C(C(=O)Nc2c(C(C)C)cccc2C(C)C)c2ccccn2)n1 (racemic) [Example 55, (±)-N-[2,6-Bis(1-methylethyl)phenyl]-2-dodecyl-α-2-pyridinyl-2H-tetrazole-5-acetamide] | 26 |
| CCCCCCCCCCCCn1nnc(C(Cc2ccccc2)C(=O)Nc2c(OC)cc(OC)cc2OC)n1 (racemic) [Example 59, (±)-2-Dodecyl-α-(phenylmethyl)-N-(2,4,6-trimethoxyphenyl)-2H-tetrazole-5-acetamide] | 49 |
| CCCCCCCCCCCCn1nnc(C(C(=O)Nc2c(OC)cc(OC)cc2OC)C2CCCCC2)n1 (racemic) [Example 60, (±)-2-Dodecyl-α-(cyclohexyl)-N-(2,4,6-trimethoxy-phenyl)-2H-tetrazole-5-acetamide] | 28 |
| CCCCCCCCCCCCn1nnc(C(C(=O)Nc2c(OC)cc(OC)cc2OC)c2ccccc2)n1 (single isomer, unassigned; (-)) [Example 61, (-)-2-Dodecyl-α-phenyl-N-(2,4,6-trimethoxy-phenyl)-2H-tetrazole-5-acetamide] | 310 |
| CCCCCCCCCCCCn1nnc(CC(=O)Nc2c(OC)ncnc2OC)n1 [Example 3, N-(4,6-dimethoxy-5-pyrimidinyl)-2-dodecyl-2H-tetra-zole-5-acetamide] | 7 |
| CCCCCCCCCCCCn1nnc(CC(=O)Nc2ncccc2C)n1 [Example 7, 2-dodecyl-N-(3-methyl-2-pyridinyl)-2H-tetrazole-5-acetamide] | 28 |
| CCCCCCCCCCCCn1nnc(CC(=O)Nc2c(C)nn(C)c2C)n1 [Example 11, 2-dodecyl-N-(1,3,5-trimethyl-1H-pyrazol-4-yl)-2H-tetrazole-5-acetamide] | 17 |
| CCCCCCCCCCCCn1nnc(C(C)(C)C(=O)Nc2c(OC)cc(OC)cc2OC)n1 [Example 27, 2-Dodecyl-α,α-dimethyl-N-(2,4,6-trimethoxyphenyl)-2H-tetrazole-5-acetamide] | 14 |
| C=CCC(CC=C)(C(=O)Nc1c(OC)cc(OC)cc1OC)c1nnn(CCCCCCCCCCCC)n1 [Example 28, 2-Dodecyl-α,α'-(2-propenyl)-N-(2,4,6-trimethoxyphenyl)-2H-tetrazole-5-acetamide] | 18 |

Now from value to compound:

| IC50 [nM] | SMILES |
| --- | --- |
| 91 | CCCCCCCCCCCCn1nnc(C(C(=O)Nc2ccccc2)c2ccccc2)n1 (racemic) [Example 14, (±)-2-dodecyl-N,α-diphenyl-2H-tetrazole-5-acetamide] |
| 8 | CCCCCCCCCCCCn1nnc(C(C(=O)Nc2c(C(C)C)cccc2C(C)C)c2ccccc2)n1 (racemic) [Example 15, (±)-N-[2,6-bis(1-methylethyl)phenyl]-2-dodecyl-α-phenyl-2H-tetrazole-5-acetamide] |
| 190 | CCCCCCCCCCCCn1nnc(C(C(=O)Nc2ccc3c(C)cc(C)nc3n2)c2ccccc2)n1 (racemic) [Example 17, (±)-N-(5,7-dimethyl-1,8-naphthyridine-2-yl)-2-dodecyl-α-phenyl-2H-tetrazole-5-acetamide] |
| 28 | CCCCCCCCCCCCn1nnc(C(C(=O)Nc2cnc3c(C)cc(C)cc3c2-c2ccccc2Cl)c2ccccc2)n1 (racemic) [Example 18, (±)-N-[4-(2-chlorophenyl)-6,8-dimethyl-3-quinolinyl]-2-dodecyl-α-phenyl-2H-tetrazole-5-acetamide] |
| 47 | CCCCCCCCCCCCn1nnc(C(C(=O)NC2CC2)c2ccccc2)n1 (racemic) [Example 20, (±)-N-cyclopropyl-2-dodecyl-α-phenyl-2H-tetrazole-5-acetamide] |
| 41 | CCCCCCCCCCCCn1nnc(C(C(=O)Nc2c(C)ccc[n+]2[O-])c2ccccc2)n1 (racemic) [Example 24, (±)-2-Dodecyl-N-(3-methyl-2-pyridinyl)-2-phenyl-2H-tetrazole-5-acetamide, N-oxide] |
| 29 | CCCCCCCCCCCCn1nnc(C(C)(C(=O)Nc2c(OC)cc(OC)cc2OC)c2ccccc2)n1 (racemic) [Example 44, (±)-2-Dodecyl-α-methyl-α-phenyl-N-(2,4,6-trimethoxyphenyl)-2H-tetrazole-5-acetamide] |
| 97 | CCCCCCCCCCCCn1nnc(C(C(=O)Nc2c(OC)cc(OC)cc2OC)c2ccc3ccccc3c2)n1 (racemic) [Example 53, (±)-2-Dodecyl-α-2-naphthalenyl-N-(2,4,6-trimethoxyphenyl)-2H-tetrazole-5-acetamide] |
| 220 | CCCCCCCCCCCCn1nnc(C(C(=O)Nc2c(OC)cc(OC)cc2OC)c2ccc(-c3ccccc3)cc2)n1 (racemic) [Example 54, (±)-α-([1,1'-biphenyl]-4-yl)-2-dodecyl-N-(2,4,6-trimethoxy-phenyl)-2H-tetrazole-5-acetamide] |
| 31 | CCCCCCCCCCCCn1nnc(C(C)C(=O)Nc2c(OC)cc(OC)cc2OC)n1 (racemic) [Example 58, (±)-2-Dodecyl-α-(methyl)-N-(2,4,6-trimethoxy-phenyl)-2H-tetrazole-5-acetamide] |
| 14 | CCCCCCCCCCCCn1nnc(C(C(=O)Nc2c(OC)cc(OC)cc2OC)c2ccccc2)n1 (single isomer, unassigned; (+)) [Example 62, (+)-2-Dodecyl-α-phenyl-N-(2,4,6-trimethoxy-phenyl)-2H-tetrazole-5-acetamide] |
| 3 | CCCCCCCCCCCCn1nnc(CC(=O)Nc2c(C(C)C)cccc2C(C)C)n1 [Example 1, N-[2,6-Bis(1-methylethyl)phenyl]-2-dodecyl-2H-tetrazole-5-acetamide] |
| 92 | CCCCCCCCCCCCn1nnnc1CC(=O)Nc1c(C(C)C)cccc1C(C)C [Example 2, N-[2,6-Bis(1-methylethyl)phenyl]-1-dodecyl-1H-tetrazole-5-acetamide] |
| 10 | CCCCCCCCCCCCn1nnc(CC(=O)Nc2c(OC)cc(OC)cc2OC)n1 [Example 5, 2-dodecyl-N-(2,4,6-trimethoxyphenyl)-2H-tetrazole-5-acetamide] |
| 120 | CCCCCCCCCCCCn1nnnc1CC(=O)Nc1c(OC)cc(OC)cc1OC [Example 6, 1-dodecyl-N-(2,4,6-trimethoxyphenyl)-1H-tetrazole-5-acetamide] |
| 280 | CCCCCCCCCCCCn1nnc(CC(=O)Nc2ccc(F)cc2F)n1 [Example 9, N-(2,4-difluoro-phenyl)-2-dodecyl-2H-tetrazole-5-acetamide] |
| 10 | CCCCCCCCCCCCn1nnc(C2(C(=O)Nc3c(OC)cc(OC)cc3OC)CCCC2)n1 [Example 29, 1-(2-Dodecyl-2H-tetrazol-5-yl)-N-(2,4,6-trimethoxyphenyl)cyclopentanecarboxamide] |
| 17 | CCCCCCCCCCCCCn1nnc(C(C)(C)C(=O)Nc2c(OC)cc(OC)cc2OC)n1 [Example 33, 2-Tridecyl-α,α-dimethyl-N-(2,4,6-trimethoxyphenyl)-2H-tetrazole-5-acetamide] |
